Test results published in US20260184700A1, “PDK1 REGULATORY COMPOUND AND COMPOSITION CONTAINING THE SAME” (PROVIBIO CO., LTD., priority 2024, published 2026).

Experiments:
[1] = test system: Human Osteosarcoma, Saos-2; assay: Relative cell viability, CCK-8, Saos-2; type: cell-based
Method: Human-derived head and neck cancer cell line Fadu and osteosarcoma cell line Saos-2 were cultured in MEM medium containing 10% FBS, 100 U/mL penicillin, and 100 μg/mL streptomycin.
(§1) Following stabilization, the cells were harvested using Trypsin-EDTA treatment, centrifuged at 1,200 rpm for 3 minutes, the supernatant was removed, and the cells were resuspended in the same medium. They were then seeded into a 96-well plate (Costar 96-well cell culture plate, Corning) at 100 μL per well, and the conditions were adjusted as indicated in Table 5.
The cells were cultured in a 5% CO2 incubator at 37° C. for 24 hours, and after stabilization of the cells, each plate was washed with 200 μL of PBS per well and treated with 50 μL of culture medium per well. […]
(§2) After that, 10 μL of CCK-8 was added to each well, and the plate was incubated again at 37° C. in a 5% CO2 incubator for 2 hours.
(§3) In other words, when the survival rate of untreated cells (DMSO) is set at 100%, the relative cell survival rate in each group treated with the drug at different concentrations is indicated.

[2] = test system: T cells isolated from mouse spleen; assay: T cell proliferation inhibition, CFSE flow cytometry, CD3/CD28 activation; type: cell-based; conditions: CD3/CD28 activated, 3 days
How it was run: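 Splenic T cells from 7-week-old C57BL/6 mice were MACS-isolated, CFSE-labelled, seeded at 2×10^5 cells/well and activated with anti-CD3/anti-CD28 (0.5 μg/mL each). Compound at 10 nM–50 μM (six levels, triplicate) was present for 3 days at 37 °C before flow cytometric readout of proliferation inhibition rate.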

[3] = test system: Human Melanoma cancer cell, Malme-3M; assay: Relative cell viability, CCK-8, Malme-3M; type: cell-based; conditions: 48 hours
Method: Human-derived breast cancer cell line MCF-7, human-derived lung cancer cell line A549, human-derived colorectal cancer cell line HCT-116, human pancreatic cancer cell line AsPC-1, glioblastoma cell line A172, and melanoma cell line Malme-3M were obtained from the Korean Cell Bank. gastric cancer cell line SNU-719, and bladder cancer cell line T24 were cultured in RPMI-1640 medium containing 10% FBS.
as §1
The cells were cultured in a 5% CO2 incubator at 37° C. for 24 hours, and after stabilization of the cells, each plate was washed with 200 μL of PBS per well and treated with 50 μL of culture medium per well.
as §2, §3

[4] = test system: skin-grafted C57BL/6 mice; assay: Skin graft animal model (BALB/c donor, C57BL/6 recipient); type: in vivo, mouse; conditions: GO88 0.15 mg/kg twice daily
Method: To evaluate the immune-suppressive effects of the compounds according to the present invention, a skin graft animal model was established, and the efficacy of the compounds was analyzed in the model.
First, female BALB/c mice aged 7 weeks and weighing approximately 20 g were used as donor animals, and female C57BL/6 mice of the same age and weight were used as recipient animals. All experimental animals were supplied by HanabioTech Co., Ltd.
Prior to the experiment, the animals were acclimatized in SPF-certified facilities for one week and then used in the experiment. The housing conditions were maintained at a temperature of 22±2° C., relative humidity of 55±10%, and a 12-hour light-dark cycle.
To establish the skin graft model, a anesthetic solution consisting of ketamine, […], and PBS in a volume ratio of 1:1:3 was administered intraperitoneally to C57BL/6 mice to induce anesthesia.
The hair on the dorsal side of the anesthetized mice was removed and disinfected, followed by excision of the full-thickness skin using an 8 mm punch. Subsequently, skin of the same size was harvested from donor mice (BALB/c) and transplanted. […]
Subsequently, the proportions of CD3- and B220-positive cells were analyzed using a flow cytometer.

Structure (SMILES)	Relative cell viability (%) ([1]; Saos-2, 10 μM, 48 hours)	Relative cell viability (%) ([1]; Saos-2, 30 μM, 48 hours)	Relative cell viability (%) ([1]; Saos-2, 50 μM, 48 hours)	Relative cell viability (%) ([1]; Saos-2, 48 hours)	Proliferation inhibition rate (%) ([2]; compound 100 nM)	Proliferation inhibition rate (%) ([2]; compound 1 μM)	Proliferation inhibition rate (%) ([2]; compound 10 μM)	Proliferation inhibition rate (%) ([2]; compound 30 μM)	Proliferation inhibition rate (%) ([2]; compound 50 μM)	Relative cell viability (%) ([3]; 1 μM)	Relative cell viability (%) ([3]; 10 μM)	Relative cell viability (%) ([3]; 30 μM)	Relative cell viability (%) ([3]; 50 μM)	animals with graft pinkening and good blood flow ([4]; day 10 post-transplantation)	animals with graft pinkening and good blood flow ([4]; day 15 post-transplantation)
CC1(C)CN(CCCCCCCCCCCCC(=O)Nc2nc(N)c3[nH]cnc3n2)CCO1 [Compound 11, 12-[4-(2,2-dimethylmorpholin-4-yl)]dodecyl-N-(6-aminopurine-2-yl)carboxamide]	24.98%	16.00%	36.73%	36.73%	100.00%	100.00%	100.00%	100.00%	100.00%	44.06%	37.40%	36.80%	38.87%		
Nc1ncccc1C(=O)NCCCCCCCCCCCCN1CCNCC1 [Compound 14, 2-Amino-N-(12-(piperazin-1-yl)dodecyl)nicotinamide]														three out of five animals	one out of five animals
